The results in this text go back to PubChem BioAssay (NCI).

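Where inhibition never reached the appropriate level, the endpoint shown equals the highest concentration tested. Otherwise, values were interpolated linearly from a five-concentration, 48-hour dose response in 96-well plates. TGI is the concentration that stops growth completely.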

Test systems include K-562 leukemia; NCI-H522 lung; MALME-3M melanoma; SW-620 colon; OVCAR-3 ovarian; MOLT-4 leukemia; UO-31 renal; SNB-19 CNS; NCI-H226 lung; IGROV1 ovarian; KM12 colon; UACC-257 melanoma; OVCAR-4 ovarian; ACHN renal; M14 melanoma; PC-3 prostate; HS 578T breast; MDA-MB-231 breast; NCI/ADR-RES ovarian.
Assay in all cases: growth of human tumour cells (NCI), 48 h

`CC(=O)c1ccccc1NC(=O)C(=O)C(C(=O)c1ccccc1-c1ccccc1)C1OC(=O)c2ccccc21` (stereo not drawn): the TGI was > 100 µM in the test with K-562 leukemia; 31 µM in the test on NCI-H522 lung; 34.3 µM with MALME-3M melanoma; 86.5 µM in the test on SW-620 colon; 48.1 µM in the test with OVCAR-3 ovarian; 93 µM in the test on MOLT-4 leukemia. Also, the TGI in the test with UO-31 renal is 32.8 µM; in the test on SNB-19 CNS it was 58.9 µM; in the test with NCI-H226 lung, 36.2 µM; with IGROV1 ovarian, 54.3 µM; with KM12 colon, 34.3 µM; in the test on UACC-257 melanoma, 32.3 µM. Further, the TGI in the test with OVCAR-4 ovarian is > 100 µM; with ACHN renal, 51.2 µM; in the test with M14 melanoma it was 35.4 µM.
Regarding `CC1=NN2C(c3ccc([N+](=O)[O-])cc3)=CSC2=NC(C)(C)C1`, the TGI in the test with K-562 leukemia, in the test on NCI-H522 lung, with MALME-3M melanoma, with SW-620 colon, in the test with OVCAR-3 ovarian and in the test with MOLT-4 leukemia was > 100 µM each time. Further, the TGI in the test with UO-31 renal, with SNB-19 CNS, in the test on NCI-H226 lung, in the test with IGROV1 ovarian, with KM12 colon and in the test with UACC-257 melanoma was > 100 µM in each case. Also, the TGI with OVCAR-4 ovarian, in the test with ACHN renal and in the test with M14 melanoma was > 100 µM each time.
With `COc1ccc(-c2csc(Cc3nc4c(Br)cc(Br)cc4c(=O)n3-c3ccc(OC)cc3)n2)cc1`, the TGI in the test with SW-620 colon, in the test with OVCAR-3 ovarian, in the test with MOLT-4 leukemia, in the test with PC-3 prostate, in the test on HS 578T breast and in the test with UO-31 renal was > 100 µM in each case. Besides, the TGI is 50.6 µM in the test with SNB-19 CNS; > 100 µM in the test with NCI-H226 lung; > 100 µM in the test with IGROV1 ovarian; > 100 µM in the test with KM12 colon; > 100 µM with MDA-MB-231 breast; > 100 µM with UACC-257 melanoma. Further, the TGI in the test with OVCAR-4 ovarian is > 100 µM; with ACHN renal, > 100 µM; in the test with M14 melanoma, 63.1 µM; with NCI/ADR-RES ovarian it was > 100 µM.
Regarding `C[C@]12CC[C@H](O)CC1=CC[C@@H]1C2CC[C@]2(C)C(=O)NC(=O)CC12` (stereo partly drawn), the TGI in the test with K-562 leukemia was 92.1 µM; in the test on NCI-H522 lung it was > 100 µM; with MALME-3M melanoma, > 100 µM; in the test with SW-620 colon, > 100 µM; in the test on OVCAR-3 ovarian, > 100 µM; in the test with MOLT-4 leukemia, > 100 µM. The TGI in the test on UO-31 renal, in the test on SNB-19 CNS, in the test on NCI-H226 lung, in the test with IGROV1 ovarian, in the test on KM12 colon and in the test with UACC-257 melanoma was > 100 µM in each case. The TGI in the test on OVCAR-4 ovarian, in the test with ACHN renal and with M14 melanoma was > 100 µM throughout.
Turning to `COc1cc([C@@H]2c3cc4c(cc3[C@@H](OC(=O)c3cccc(N)c3)C3COC(=O)[C@@H]32)OCO4)cc(OC)c1O` (stereo partly drawn), the TGI was > 100 µM with K-562 leukemia; > 56.3 µM with MALME-3M melanoma; > 100 µM in the test on SW-620 colon; > 100 µM with OVCAR-3 ovarian; > 59.8 µM with MOLT-4 leukemia; 26.4 µM in the test on UO-31 renal. Further, the TGI was > 100 µM in the test with SNB-19 CNS; 6.09 µM in the test on NCI-H226 lung; > 64.8 µM in the test on IGROV1 ovarian; > 73.5 µM in the test on KM12 colon; > 77.3 µM in the test with UACC-257 melanoma; > 100 µM with OVCAR-4 ovarian. Besides, the TGI with ACHN renal worked out at 15.3 µM; in the test on M14 melanoma, 28.3 µM.
`CCN(CC)C(=S)SCC(=O)Nc1nc2c(s1)CCCC2`: the TGI is 65.3 µM in the test on NCI-H522 lung; > 100 µM in the test on MALME-3M melanoma; > 100 µM in the test on SW-620 colon; > 100 µM in the test with MOLT-4 leukemia; > 100 µM in the test on UO-31 renal; > 100 µM in the test with SNB-19 CNS. Besides, the TGI in the test with NCI-H226 lung, in the test with IGROV1 ovarian, in the test with KM12 colon, with UACC-257 melanoma, with OVCAR-4 ovarian and in the test on ACHN renal was > 100 µM in each case. Further, the TGI with M14 melanoma was > 100 µM.
As to `C=CCCCN1CCCC(C)C1=S` (stereo not drawn), the TGI in the test on K-562 leukemia, in the test on NCI-H522 lung, with MALME-3M melanoma, in the test with SW-620 colon, with OVCAR-3 ovarian and with MOLT-4 leukemia was > 100 µM each time. Moreover, the TGI in the test with UO-31 renal, in the test on SNB-19 CNS, in the test with NCI-H226 lung, with IGROV1 ovarian, in the test with KM12 colon and in the test on UACC-257 melanoma was > 100 µM each time. Further, the TGI in the test with OVCAR-4 ovarian, in the test on ACHN renal and in the test with M14 melanoma was > 100 µM in each case.
Regarding `Cn1c(=O)cc2[nH]c3ccccc3n2c1=O`, the TGI with K-562 leukemia is > 100 µM; in the test with MALME-3M melanoma it was > 100 µM; with SW-620 colon it was 61.3 µM; in the test on OVCAR-3 ovarian, > 100 µM; in the test with MOLT-4 leukemia, > 100 µM; with UO-31 renal it was > 100 µM. For the same compound, the TGI with SNB-19 CNS, with NCI-H226 lung, with IGROV1 ovarian, in the test on KM12 colon, in the test with UACC-257 melanoma and with OVCAR-4 ovarian was > 100 µM each time. For the same compound, the TGI in the test with ACHN renal and with M14 melanoma was > 100 µM each time.
Consider `Cn1c2ccccc2c2ccc3c(c21)C(=O)C(c1ccccc1)=CC3=O`, for which the TGI is > 100 µM in the test with K-562 leukemia; 40.2 µM in the test with NCI-H522 lung; 84.4 µM in the test on MALME-3M melanoma; 79.2 µM in the test on OVCAR-3 ovarian; > 100 µM in the test on MOLT-4 leukemia; > 100 µM in the test on UO-31 renal. For the same compound, the TGI in the test on SNB-19 CNS is > 100 µM; in the test on NCI-H226 lung it was 40.7 µM; in the test with IGROV1 ovarian it was 39.3 µM; with KM12 colon, > 100 µM; in the test with UACC-257 melanoma, > 100 µM; in the test with ACHN renal, > 100 µM. In addition, the TGI in the test with M14 melanoma is > 100 µM.
Regarding `CC(C)(C)[C@H]1CO[C@]2(c3ccccc3)[C@@H]3C[C@@H]3C(=O)N12`, the TGI in the test with NCI-H522 lung, in the test with MALME-3M melanoma, in the test on SW-620 colon, in the test on OVCAR-3 ovarian, in the test with UO-31 renal and with SNB-19 CNS was > 100 µM each time. Further, the TGI with NCI-H226 lung, with IGROV1 ovarian, in the test with KM12 colon, in the test with UACC-257 melanoma, with OVCAR-4 ovarian and in the test on ACHN renal was > 100 µM each time. Besides, the TGI with M14 melanoma is > 100 µM.
